Source: patent publication US5219884A, “Immunosuppressant” (Taito Co., Ltd., priority 1990, dated 1993)
Read-outs that look alike come from different tables or passages of the source.

Legend:
Type in all cases: cell-based
[1] = tested on: mouse spleen cells stimulated with phytohemagglutinin (PHA); test: suppression of blastogenic response of mouse spleen cells by PHA; conditions: PHA (1/100); for inhibition at 0.01 µg/mL / inhibition at 0.1 µg/mL / inhibition at 1 µg/mL: Mus musculus, 76 h
Method: (§1) The effect on the mouse blastogenic response of mouse spleen cells stimulated with phytohemagglutinin (PHA) or with pokeweed mitogen (PWM) was examined as follows:
(§2) The spleen was resected from 5- to 8-week-old male […] BALB/c mice, and single cell suspension of spleen cells was prepared by using the RPMI1640 culture medium supplemented with 5% FCS. After hemolytic treatment, the concentration of the suspension was adjusted to 5×10^6 cells/ml by using the RPMI1640 culture medium supplemented with 10^-4 M 2-mercaptoethanol and 20% FCS, to which PHA or PWM was added. One hundred μl of the cell suspension was added to each well of 96-well microculture plates to which 100 μl per well of the test solution had been added (5×10^5 mouse spleen cells per well). After culturing at 37° C. in an atmosphere of 5% carbon dioxide for 72 hours, 0.5 μCi/well of ^3 H-thymidine was added and cultured under the same conditions for further 4 hours. After termination of the culture, the cells were harvested by a cell harvester, and the radioactivity incorporated into the cells was measured by a liquid scintillation counter, which was used as the index of blastogenic response of mouse spleen cells.

[2] = tested on: mouse spleen cells stimulated with pokeweed mitogen (PWM); test: suppression of blastogenic response of mouse spleen cells by PWM; conditions: for inhibition at 0.1 µg/mL / inhibition at 0.01 µg/mL / inhibition at 1 µg/mL: Mus musculus, 76 h; for inhibition at 0.1 µg/mL: read-out: Suppression
Method: as §1, §2

[3] = tested on: IL3 production in mouse allogenic MLC; test: suppression of IL3 production in mouse allogenic MLC; conditions: for inhibition at 0.01 µg/mL / inhibition at 0.1 µg/mL / inhibition at 1 µg/mL / inhibition at 10 µg/mL: Mus musculus, read-out: Suppression
Method: The supernatant of mouse allogenic MLC and the supernatant of PHA-stimulated mouse spleen cells culture were prepared in the same manner as in Experimental Example 6.
The IL3 activity in the supernatant described above was assayed as follows: IL3-dependent mouse cell line FDC-P2 cells were suspended in the RPMI1640 culture medium supplemented with 10% FCS to the concentration of 10^5 cells/ml, and 100 μl of the suspension was added to each well of 96-well microculture plates in which 100 μl per well of the two-fold serial dilutions of the supernatant described above had been placed. After culturing at 37° C. in an atmosphere of 5% carbon dioxide for 20 hours, 0.5 μCi/well of ^3 H-thymidine was added, and cultured for further 4 hours under the same conditions. After termination of the culture, the cells were harvested by a cell harvester, and the radioactivity incorporated into the cells was measured by a liquid scintillation counter. The IL3 activity was expressed in U/ml as the titer at the concentrations at which the amount of ^3 H-thymidine incorporated was 50% of the maximum.

[4] = tested on: IL2 production in PHA-stimulated mouse spleen cells; test: suppression of IL2 production in PHA-stimulated mouse spleen cells; conditions: for inhibition at 0.01 µg/mL / inhibition at 0.1 µg/mL / inhibition at 1 µg/mL / inhibition at 10 µg/mL: Mus musculus, 24 h, read-out: Suppression
Method: Culture of PHA-stimulated mouse spleen cells was carried out as follows: PHA (1/100 dilution) was added to the BALB/c mouse spleen cells suspension prepared in the same way as in Experimental Example 4. The cell suspension (1 ml) and 1 ml of the test substance were added to 24-well multidishes, and cultured at 37° C. in an atmosphere of 5% carbon dioxide for 24 hours. After termination of the culture, the supernatant was collected and used as the supernatant of PHA-stimulated cultures.
(§3) The IL2 activity in the supernatants of mouse allogenic MLC and the supernatants of PHA-stimulated mouse spleen cells culture was assayed as follows: IL2-dependent mouse cell line CTLL-2 cells were suspended in the RPMI1640 culture medium supplemented with 30% FCS to the concentration of 10^5 cells/ml, and 100 μl of the suspension was added to each well of 96-well microculture plates in which 100 μl of the supernatant of the MLC described above had been placed. After culturing at 37° C. in an atmosphere of 5% carbon dioxide for 20 hours, 0.5 μCi/well of ^3 H-thymidine was added, and incubated for 4 hours under the same conditions. After termination of the culture, the cells were harvested by a cell harvester, and the radioactivity incorporated into the cells was measured by a liquid scintillation counter. IL2 activity was expressed in U/ml as the titer at various concentrations at which the ^3 H-thymidine incorporation was 50% of the maximum.

[5] = tested on: IL2 production in mouse allogenic MLC; test: suppression of IL2 production in mouse allogenic MLC; conditions: for inhibition at 0.01 µg/mL / inhibition at 0.1 µg/mL / inhibition at 1 µg/mL / inhibition at 10 µg/mL: Mus musculus, 48 h, read-out: Suppression
Method: Mouse allogenic MLC was carried out as follows:
The respondor cell suspension and the stimulator cell suspension (0.5 ml each) prepared in the same way as in Experimental Example 1 together with 1 ml of test substance were added to 24-well multidishes, and cultured at 37° C. in an atmosphere of 5% carbon dioxide for 2 days. After termination of the culture, the supernatant was collected and used as the supernatant of mouse allogenic MLC.
as §3

Compound | inhibition at 0.01 µg/mL ([1]; 0.01 μg/ml) [%] | inhibition at 0.1 µg/mL ([1]; 0.1 μg/ml) [%] | inhibition at 1 µg/mL ([1]; 1 μg/ml) [%] | 3H-thymidine uptake ([1]; 0.01 μg/ml) [cpm] | 3H-thymidine uptake ([1]; 0.1 μg/ml) [cpm] | 3H-thymidine uptake ([1]; 1 μg/ml) [cpm] | inhibition at 0.01 µg/mL ([2]; PWM (1/100), 0.01 μg/ml) [%] | inhibition at 1 µg/mL ([2]; PWM (1/100), 1 μg/ml) [%] | 3H-thymidine uptake ([2]; PWM (1/100), 0.01 μg/ml) [cpm] | 3H-thymidine uptake ([2]; PWM (1/100), 0.1 μg/ml) [cpm] | 3H-thymidine uptake ([2]; PWM (1/100), 1 μg/ml) [cpm] | IL3 activity ([3]; 0.01 μg/ml) [U/ml] | IL3 activity ([3]; 0.1 μg/ml) [U/ml] | IL3 activity ([3]; 1 μg/ml) [U/ml] | IL3 activity ([3]; 10 μg/ml) [U/ml] | inhibition at 0.01 µg/mL [3] [%] | IL2 activity ([4]; 0.01 μg/ml) [U/ml] | IL2 activity ([4]; 0.1 μg/ml) [U/ml] | IL2 activity ([4]; 1 μg/ml) [U/ml] | IL2 activity ([4]; 10 μg/ml) [U/ml] | further results
CCCCCCC(=O)CCCCCC/C=C/CC(O)C(O)C(N)(CO)C(=O)O (stereo not drawn) [Example 1] | 71.9 | 66.8 | 92.4 | 3238 | 3624 | 1686 | 61 | 84.5 | 13499 | 9895 | 6529 | 13.9 | 12.1 | 9.8 | < 2 | 62.2 | 6.5 | 2.5 | 1.1 | < 1 | inhibition at 0.1 µg/mL [2]: 73.2%; inhibition at 0.1 µg/mL [3]: 67.1%; inhibition at 1 µg/mL [3]: 73.4%; inhibition at 10 µg/mL [3]: > 95%; inhibition at 0.01 µg/mL [4]: 46.3%; inhibition at 0.1 µg/mL [4]: 79.3%; inhibition at 1 µg/mL [4]: 90.9%; inhibition at 10 µg/mL [4]: > 92%; IL2 activity ([5]; 0.01 μg/ml): 4.0 U/ml; IL2 activity ([5]; 0.1 μg/ml): 2.0 U/ml; IL2 activity ([5]; 1 μg/ml): 1.1 U/ml; IL2 activity ([5]; 10 μg/ml): < 1 U/ml; inhibition at 0.01 µg/mL [5]: 59.2%; inhibition at 0.1 µg/mL [5]: 79.6%; inhibition at 1 µg/mL [5]: 88.8%; inhibition at 10 µg/mL [5]: > 90%
CCCCCCC(=O)CCCCCC/C=C/CC1OC(=O)C(N)(CO)C1O (stereo not drawn) [Example 4] | 34.5 | 57.8 | 71 | 6074 | 4312 | 3308 | 41.4 | 77.1 | 19335 | 9325 | 8712 | 26.0 | 16.0 | 8.6 | 6.1 | 29.3 | 4.9 | 2.6 | < 1 | < 1 | inhibition at 0.1 µg/mL ([2]; PWM (1/100), 0.1 μg/ml): 75.1%; inhibition at 0.1 µg/mL ([3]; 0.1 μg/ml): 56.5%; inhibition at 1 µg/mL ([3]; 1 μg/ml): 76.6%; inhibition at 10 µg/mL ([3]; 10 μg/ml): 83.4%; inhibition at 0.01 µg/mL ([4]; 0.01 μg/ml): 59.5%; inhibition at 0.1 µg/mL ([4]; 0.1 μg/ml): 78.5%; inhibition at 1 µg/mL ([4]; 1 μg/ml): > 92%; inhibition at 10 µg/mL ([4]; 10 μg/ml): > 92%; IL2 activity ([5]; 0.01 μg/ml): 4.0 U/ml; IL2 activity ([5]; 0.1 μg/ml): 1.7 U/ml; IL2 activity ([5]; 1 μg/ml): < 1 U/ml; IL2 activity ([5]; 10 μg/ml): < 1 U/ml; inhibition at 0.01 µg/mL ([5]; 0.01 μg/ml): 59.2%; inhibition at 0.1 µg/mL ([5]; 0.1 μg/ml): 82.7%; inhibition at 1 µg/mL ([5]; 1 μg/ml): > 90%; inhibition at 10 µg/mL ([5]; 10 μg/ml): > 90%
